Laboratory results as given in US9340590B2 (priority 2011, dated 2016).
Positions of bridges follow the written chain, without caps; N, C: chain ends. Non-standard residues stand in square brackets, D forms with d. Residues, ends and D or L forms follow the SMILES beside them. hArg = N=C(N)NCCCC[C@H](N)C(=O)O; Pra = C#CC[C@H](N)C(=O)O; Nva = CCC[C@H](N)C(=O)O

Assays:
hNav1.7 = hNav1.7 (Homo sapiens, UniProt Q15858); assay: cell-based; conditions: Nav1.7 Use IC50
hNav1.5 = hNav1.5 (Homo sapiens, UniProt Q14524); assay: cell-based
hNav1.5, sequence (Q14524 whole entry, looked up): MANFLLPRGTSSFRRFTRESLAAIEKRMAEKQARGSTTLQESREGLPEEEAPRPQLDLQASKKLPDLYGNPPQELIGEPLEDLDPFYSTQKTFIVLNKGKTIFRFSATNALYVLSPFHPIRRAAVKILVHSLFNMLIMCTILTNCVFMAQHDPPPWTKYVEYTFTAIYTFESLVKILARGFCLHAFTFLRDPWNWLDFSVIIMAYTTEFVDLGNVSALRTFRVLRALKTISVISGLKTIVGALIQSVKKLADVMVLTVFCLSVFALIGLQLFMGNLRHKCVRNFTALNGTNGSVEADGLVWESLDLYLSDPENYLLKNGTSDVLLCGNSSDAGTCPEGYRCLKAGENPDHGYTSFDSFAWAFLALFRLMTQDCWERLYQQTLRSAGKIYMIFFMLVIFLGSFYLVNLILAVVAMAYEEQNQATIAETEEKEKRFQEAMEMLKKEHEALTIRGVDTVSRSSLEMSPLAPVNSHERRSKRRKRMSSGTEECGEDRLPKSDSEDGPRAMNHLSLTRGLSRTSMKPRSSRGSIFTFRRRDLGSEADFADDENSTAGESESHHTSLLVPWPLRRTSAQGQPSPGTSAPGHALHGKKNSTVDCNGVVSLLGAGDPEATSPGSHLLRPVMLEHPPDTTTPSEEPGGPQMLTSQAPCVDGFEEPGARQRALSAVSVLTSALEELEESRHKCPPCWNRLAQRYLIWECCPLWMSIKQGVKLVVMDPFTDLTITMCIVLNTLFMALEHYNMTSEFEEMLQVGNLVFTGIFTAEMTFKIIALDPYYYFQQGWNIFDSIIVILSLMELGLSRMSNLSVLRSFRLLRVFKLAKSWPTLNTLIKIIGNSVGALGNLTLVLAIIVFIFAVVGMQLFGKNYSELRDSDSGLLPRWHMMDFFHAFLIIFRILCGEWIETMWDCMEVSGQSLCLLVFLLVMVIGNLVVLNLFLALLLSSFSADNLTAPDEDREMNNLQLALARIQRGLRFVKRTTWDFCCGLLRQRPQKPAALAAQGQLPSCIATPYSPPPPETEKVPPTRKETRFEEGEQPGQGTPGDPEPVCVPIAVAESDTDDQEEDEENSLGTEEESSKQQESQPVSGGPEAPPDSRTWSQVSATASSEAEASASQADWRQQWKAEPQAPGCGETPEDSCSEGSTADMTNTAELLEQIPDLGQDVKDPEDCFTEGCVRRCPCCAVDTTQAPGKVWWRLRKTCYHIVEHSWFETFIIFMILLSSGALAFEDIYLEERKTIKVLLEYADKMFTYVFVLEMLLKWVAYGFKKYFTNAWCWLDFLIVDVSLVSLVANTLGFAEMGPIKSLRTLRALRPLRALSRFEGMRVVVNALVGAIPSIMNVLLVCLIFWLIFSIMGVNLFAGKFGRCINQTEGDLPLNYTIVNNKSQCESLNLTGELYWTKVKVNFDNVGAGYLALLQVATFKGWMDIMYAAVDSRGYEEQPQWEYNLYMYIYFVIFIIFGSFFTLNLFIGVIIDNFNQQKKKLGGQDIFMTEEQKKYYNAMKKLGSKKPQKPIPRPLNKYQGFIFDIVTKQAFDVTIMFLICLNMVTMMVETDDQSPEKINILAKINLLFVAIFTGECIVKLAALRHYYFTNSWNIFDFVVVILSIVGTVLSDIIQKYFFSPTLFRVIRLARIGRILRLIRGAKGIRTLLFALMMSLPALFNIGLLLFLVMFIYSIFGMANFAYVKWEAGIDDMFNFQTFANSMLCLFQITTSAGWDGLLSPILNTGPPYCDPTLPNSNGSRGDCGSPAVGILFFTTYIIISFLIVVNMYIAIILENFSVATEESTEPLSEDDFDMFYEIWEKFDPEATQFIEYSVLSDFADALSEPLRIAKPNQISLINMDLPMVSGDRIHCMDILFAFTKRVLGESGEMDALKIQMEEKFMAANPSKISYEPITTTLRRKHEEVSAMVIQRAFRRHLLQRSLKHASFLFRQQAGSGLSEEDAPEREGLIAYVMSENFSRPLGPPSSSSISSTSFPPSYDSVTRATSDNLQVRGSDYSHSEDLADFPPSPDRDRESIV

hNav1.7, sequence (Q15858 whole entry, looked up): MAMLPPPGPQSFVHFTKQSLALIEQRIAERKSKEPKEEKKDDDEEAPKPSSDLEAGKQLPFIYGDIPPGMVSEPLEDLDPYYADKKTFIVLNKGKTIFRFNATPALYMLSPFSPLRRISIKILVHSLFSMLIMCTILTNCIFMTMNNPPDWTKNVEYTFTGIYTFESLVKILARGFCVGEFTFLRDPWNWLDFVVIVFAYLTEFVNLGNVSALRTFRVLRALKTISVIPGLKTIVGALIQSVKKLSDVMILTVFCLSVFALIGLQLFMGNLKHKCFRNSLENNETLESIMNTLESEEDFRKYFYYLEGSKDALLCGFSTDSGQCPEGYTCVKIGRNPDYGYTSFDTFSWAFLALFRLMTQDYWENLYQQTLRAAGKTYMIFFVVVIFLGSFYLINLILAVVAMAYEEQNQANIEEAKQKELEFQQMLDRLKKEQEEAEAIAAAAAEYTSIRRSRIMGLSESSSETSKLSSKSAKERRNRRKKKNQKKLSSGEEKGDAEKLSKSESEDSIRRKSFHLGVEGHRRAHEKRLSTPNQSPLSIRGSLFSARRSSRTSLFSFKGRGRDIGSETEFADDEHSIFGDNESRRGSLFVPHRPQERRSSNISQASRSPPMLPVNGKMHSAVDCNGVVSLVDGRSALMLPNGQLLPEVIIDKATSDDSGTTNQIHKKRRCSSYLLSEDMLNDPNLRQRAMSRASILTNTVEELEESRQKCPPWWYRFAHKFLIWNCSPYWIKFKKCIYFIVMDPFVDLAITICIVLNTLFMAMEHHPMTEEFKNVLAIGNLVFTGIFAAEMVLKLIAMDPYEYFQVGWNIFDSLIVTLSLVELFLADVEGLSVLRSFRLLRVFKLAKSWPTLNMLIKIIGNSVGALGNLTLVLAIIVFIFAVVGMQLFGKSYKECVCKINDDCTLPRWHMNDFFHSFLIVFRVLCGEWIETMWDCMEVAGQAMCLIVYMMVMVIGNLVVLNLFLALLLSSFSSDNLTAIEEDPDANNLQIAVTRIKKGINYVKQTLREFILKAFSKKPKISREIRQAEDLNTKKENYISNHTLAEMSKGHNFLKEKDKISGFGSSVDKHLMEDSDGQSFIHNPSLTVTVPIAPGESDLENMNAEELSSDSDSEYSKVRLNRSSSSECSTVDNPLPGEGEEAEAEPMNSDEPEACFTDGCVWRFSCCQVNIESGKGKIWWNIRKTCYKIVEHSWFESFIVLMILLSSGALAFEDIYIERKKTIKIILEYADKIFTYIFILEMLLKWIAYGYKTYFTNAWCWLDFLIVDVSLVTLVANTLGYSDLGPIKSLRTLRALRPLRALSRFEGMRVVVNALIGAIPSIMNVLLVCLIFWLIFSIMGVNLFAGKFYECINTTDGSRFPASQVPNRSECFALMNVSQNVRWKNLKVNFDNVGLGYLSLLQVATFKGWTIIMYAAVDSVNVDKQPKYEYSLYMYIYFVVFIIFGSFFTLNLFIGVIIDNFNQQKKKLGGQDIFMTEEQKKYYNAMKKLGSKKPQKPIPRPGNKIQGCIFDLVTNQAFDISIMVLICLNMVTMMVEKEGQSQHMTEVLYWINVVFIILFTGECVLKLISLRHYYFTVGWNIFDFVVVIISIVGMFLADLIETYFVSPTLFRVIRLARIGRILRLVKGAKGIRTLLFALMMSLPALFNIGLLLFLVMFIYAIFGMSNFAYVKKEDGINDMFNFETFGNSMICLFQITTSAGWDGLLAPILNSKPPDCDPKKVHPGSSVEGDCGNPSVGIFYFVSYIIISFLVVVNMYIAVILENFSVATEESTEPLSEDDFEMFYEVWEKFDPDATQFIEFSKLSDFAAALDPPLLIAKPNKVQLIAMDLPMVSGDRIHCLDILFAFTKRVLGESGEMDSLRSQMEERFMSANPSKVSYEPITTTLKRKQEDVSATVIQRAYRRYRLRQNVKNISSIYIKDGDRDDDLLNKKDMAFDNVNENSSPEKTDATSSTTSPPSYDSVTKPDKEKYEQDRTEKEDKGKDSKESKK

Row | Compound | IC50 (hNav1.7) [nM] | IC50 (hNav1.5) [nM]
1 | CCC[C@@H]1NC(=O)CNC(=O)[C@H](CC(C)C)NC(=O)[C@@H](NC(=O)[C@@H](N)CC(=O)O)CSSC[C@@H]2NC(=O)[C@@H]3CSSC[C@@H](C(=O)N[C@@H](CCCCN)C(=O)N[C@@H](Cc4ccc(O)cc4)C(=O)N[C@H](C(=O)N[C@@H](Cc4ccccc4)C(N)=O)C(C)C)NC(=O)[C@H](Cc4c[nH]c5ccccc45)NC(=O)[C@H](CCCCN)NC(=O)[C@H](Cc4c[nH]cn4)NC(=O)[C@H]([C@@H](C)O)NC(=O)[C@H](CCCNC(=N)N)NC(=O)[C@H](CO)NC(=O)[C@H](CSSC[C@H](NC(=O)[C@H](CCCCN)NC(=O)[C@H](CCCNC(=N)N)NC(=O)[C@H](CC(C)C)NC1=O)C(=O)N[C@@H]([C@@H](C)CC)C(=O)N1CCC[C@H]1C(=O)N[C@@H](CC(=O)O)C(=O)N[C@@H](CC(N)=O)C(=O)N[C@@H](CC(=O)O)C(=O)N[C@@H](CCCCN)C(=O)N3)NC(=O)[C@H](C(C)C)NC(=O)[C@H](CC(C)C)NC(=O)[C@H](CC(N)=O)NC(=O)[C@@H]1CCCN1C(=O)[C@H](CCCNC(=N)N)NC2=O [[Nva5;Leu6]GpTx-1(1-34)] | 83 | > 10000
2 | CC[C@H](C)[C@@H]1NC(=O)[C@@H]2CSSC[C@@H]3NC(=O)[C@H](C(C)C)NC(=O)[C@H](CC(C)C)NC(=O)[C@H](CC(N)=O)NC(=O)[C@@H]4CCCN4C(=O)[C@H](CCCNC(=N)N)NC(=O)[C@H](CSSC[C@H](NC(=O)[C@@H](N)CC(=O)O)C(=O)N[C@@H](CC(C)C)C(=O)NCC(=O)N[C@@H](C)C(=O)N[C@@H](Cc4cn(C)c5ccccc45)C(=O)N[C@@H](CCCNC(=N)N)C(=O)N[C@@H](CCCCN)C(=O)N2)NC(=O)[C@H](CSSC[C@@H](C(=O)N[C@@H](CCCCN)C(=O)N[C@@H](Cc2ccc(O)cc2)C(=O)N[C@H](C(=O)N[C@@H](Cc2ccccc2)C(N)=O)C(C)C)NC(=O)[C@H](Cc2c[nH]c4ccccc24)NC(=O)[C@H](CCCCN)NC(=O)[C@H](Cc2c[nH]cn2)NC(=O)[C@H]([C@@H](C)O)NC(=O)[C@H](CCCNC(=N)N)NC(=O)[C@H](CO)NC3=O)NC(=O)[C@H](CCCCN)NC(=O)[C@H](CC(=O)O)NC(=O)[C@H](CC(N)=O)NC(=O)[C@H](CC(=O)O)NC(=O)[C@@H]2CCCN2C1=O [[Ala5;1′NMeW6]GpTx-1(1-34)] | 51 | > 10000
3 | CC[C@H](C)[C@@H]1NC(=O)[C@@H]2CSSC[C@@H]3NC(=O)[C@H](C(C)C)NC(=O)[C@H](CC(C)C)NC(=O)[C@H](CC(N)=O)NC(=O)[C@@H]4CCCN4C(=O)[C@H](CCCNC(=N)N)NC(=O)[C@H](CSSC[C@H](NC(=O)[C@@H](N)CC(=O)O)C(=O)N[C@@H](CC(C)C)C(=O)NCC(=O)N(C)[C@@H](CC(C)C)C(=O)N[C@@H](CC(C)C)C(=O)N[C@@H](CCCNC(=N)N)C(=O)N[C@@H](CCCCN)C(=O)N2)NC(=O)[C@H](CSSC[C@@H](C(=O)N[C@@H](CCCCN)C(=O)N[C@@H](Cc2ccc(O)cc2)C(=O)N[C@H](C(=O)N[C@@H](Cc2ccccc2)C(N)=O)C(C)C)NC(=O)[C@H](Cc2c[nH]c4ccccc24)NC(=O)[C@H](CCCCN)NC(=O)[C@H](Cc2c[nH]cn2)NC(=O)[C@H]([C@@H](C)O)NC(=O)[C@H](CCCNC(=N)N)NC(=O)[C@H](CO)NC3=O)NC(=O)[C@H](CCCCN)NC(=O)[C@H](CC(=O)O)NC(=O)[C@H](CC(N)=O)NC(=O)[C@H](CC(=O)O)NC(=O)[C@@H]2CCCN2C1=O [[NMeLeu5;Leu6]GpTx-1(1-34)] | 12 | > 10000
4 | CC[C@H](C)[C@@H]1NC(=O)[C@@H]2CSSC[C@@H]3NC(=O)[C@H](C(C)C)NC(=O)[C@H](CC(C)C)NC(=O)[C@H](CC(N)=O)NC(=O)[C@@H]4CCCN4C(=O)[C@H](CCCNC(=N)N)NC(=O)[C@H](CSSC[C@H](NC(=O)[C@@H](N)CC(=O)O)C(=O)N[C@@H](CC(C)C)C(=O)NCC(=O)N[C@@H](C(C)C)C(=O)N[C@@H](CCSC)C(=O)N[C@@H](CCCNC(=N)N)C(=O)N[C@@H](CCCCN)C(=O)N2)NC(=O)[C@H](CSSC[C@@H](C(=O)N[C@@H](CCCCN)C(=O)N[C@@H](Cc2ccc(O)cc2)C(=O)N[C@H](C(=O)N[C@@H](Cc2ccccc2)C(N)=O)C(C)C)NC(=O)[C@H](Cc2c[nH]c4ccccc24)NC(=O)[C@H](CCC(=O)O)NC(=O)[C@H](Cc2c[nH]cn2)NC(=O)[C@H]([C@@H](C)O)NC(=O)[C@H](CCCNC(=N)N)NC(=O)[C@H](CO)NC3=O)NC(=O)[C@H](CCCCN)NC(=O)[C@H](CC(=O)O)NC(=O)[C@H](CC(N)=O)NC(=O)[C@H](CC(=O)O)NC(=O)[C@@H]2CCCN2C1=O [[Val5;Glu28]GpTx-1(1-34)] (H-DCLGVMRKCIPDNDKCCRPNLVCSRTHEWCKYVF-NH2; disulfide 2-17, 9-23, 16-30) | 29 | > 10000
5 | C#CC[C@@H]1NC(=O)[C@H](CC(=O)O)NC(=O)[C@@H]2CCCN2C(=O)[C@H]([C@@H](C)CC)NC(=O)[C@@H]2CSSC[C@@H]3NC(=O)[C@H](C(C)C)NC(=O)[C@H](CC(C)C)NC(=O)[C@H](CC(N)=O)NC(=O)[C@@H]4CCCN4C(=O)[C@H](CCCNC(=N)N)NC(=O)[C@H](CSSC[C@H](NC(=O)[C@@H](N)CC(=O)O)C(=O)N[C@@H](CC(C)C)C(=O)NCC(=O)N[C@@H](C)C(=O)N[C@@H](Cc4ccccc4)C(=O)N[C@@H](CCCNC(=N)N)C(=O)N[C@@H](CCCCN)C(=O)N2)NC(=O)[C@H](CSSC[C@@H](C(=O)N[C@@H](CCCCN)C(=O)N[C@@H](Cc2ccc(O)cc2)C(=O)N[C@H](C(=O)N[C@@H](Cc2ccccc2)C(N)=O)C(C)C)NC(=O)[C@H](Cc2c[nH]c4ccccc24)NC(=O)[C@H](CCCNC(=N)N)NC(=O)[C@H](Cc2c[nH]cn2)NC(=O)[C@H](CC(C)C)NC(=O)[C@H](CCCNC(=N)N)NC(=O)[C@H](CO)NC3=O)NC(=O)[C@H](CCCCN)NC(=O)[C@H](CC(=O)O)NC1=O (H-DCLGAFRKCIPD[Pra]DKCCRPNLVCSRLHRWCKYVF-NH2; disulfide 2-17, 9-23, 16-30) | 3 | > 10000
6 | CC[C@H](C)[C@@H]1NC(=O)[C@@H]2CSSC[C@@H]3NC(=O)[C@H](C)NC(=O)[C@H](CC(C)C)NC(=O)[C@H](CC(N)=O)NC(=O)[C@@H]4CCCN4C(=O)[C@H](CCCNC(=N)N)NC(=O)[C@H](CSSC[C@H](NC(=O)[C@@H](N)CC(=O)O)C(=O)N[C@@H](CC(C)C)C(=O)NCC(=O)N[C@@H](Cc4ccccc4)C(=O)N[C@@H](CCSC)C(=O)N[C@@H](CCCNC(=N)N)C(=O)N[C@@H](CCCCN)C(=O)N2)NC(=O)[C@H](CSSC[C@@H](C(=O)N[C@@H](CCCCN)C(=O)N[C@@H](Cc2ccc(O)cc2)C(=O)N[C@H](C(=O)N[C@@H](Cc2ccccc2)C(N)=O)C(C)C)NC(=O)[C@H](Cc2c[nH]c4ccccc24)NC(=O)[C@H](CCCCN)NC(=O)[C@H](Cc2cnc[nH]2)NC(=O)[C@H]([C@@H](C)O)NC(=O)[C@H](CCCNC(=N)N)NC(=O)[C@H](CO)NC3=O)NC(=O)[C@H](CCCCN)NC(=O)[C@H](CC(=O)O)NC(=O)[C@H](CC(N)=O)NC(=O)[C@H](CC(=O)O)NC(=O)[C@@H]2CCCN2C1=O [[Ala22]GpTx-1(1-34)] (H-DCLGFMRKCIPDNDKCCRPNLACSRTHKWCKYVF-NH2; disulfide 2-17, 9-23, 16-30) | 6 | 6200
7 | CC[C@H](C)[C@@H]1NC(=O)[C@@H]2CSSC[C@@H]3NC(=O)[C@H](C(C)C)NC(=O)[C@H](CC(C)C)NC(=O)[C@H](CC(N)=O)NC(=O)[C@@H]4CCCN4C(=O)[C@H](CCCNC(=N)N)NC(=O)[C@H](CSSC[C@H](NC(=O)[C@@H](N)CC(=O)O)C(=O)N[C@@H](CC(C)C)C(=O)NCC(=O)N[C@@H](C)C(=O)N[C@@H](CCSC)C(=O)N[C@@H](CCCNC(=N)N)C(=O)N[C@@H](CCCCN)C(=O)N2)NC(=O)[C@H](CSSC[C@@H](C(=O)N[C@@H](CCCCN)C(=O)N[C@@H](Cc2ccc(O)cc2)C(=O)N[C@H](C(=O)N[C@@H](Cc2ccccc2)C(N)=O)C(C)C)NC(=O)[C@H](Cc2c[nH]c4ccccc24)NC(=O)[C@H](CCCCNC(=N)N)NC(=O)[C@H](Cc2c[nH]cn2)NC(=O)[C@H]([C@@H](C)O)NC(=O)[C@H](CCCNC(=N)N)NC(=O)[C@H](CO)NC3=O)NC(=O)[C@H](CCCCN)NC(=O)[C@H](CC(=O)O)NC(=O)[C@H](CC(N)=O)NC(=O)[C@H](CC(=O)O)NC(=O)[C@@H]2CCCN2C1=O [[Ala5;hArg28]GpTx-1(1-34)] (H-DCLGAMRKCIPDNDKCCRPNLVCSRTH[hArg]WCKYVF-NH2; disulfide 2-17, 9-23, 16-30) | 14 | > 10000
8 | CCC[C@@H]1NC(=O)CNC(=O)[C@H](CC(C)C)NC(=O)[C@@H](NC(=O)[C@@H](N)CC(=O)O)CSSC[C@@H]2NC(=O)[C@@H]3CSSC[C@@H](C(=O)N[C@@H](CCCCN)C(=O)N[C@@H](Cc4ccc(O)cc4)C(=O)N[C@H](C(=O)N[C@@H](Cc4ccccc4)C(N)=O)C(C)C)NC(=O)[C@H](Cc4c[nH]c5ccccc45)NC(=O)[C@H](CCC(=O)O)NC(=O)[C@H](Cc4c[nH]cn4)NC(=O)[C@H]([C@@H](C)O)NC(=O)[C@H](CCCNC(=N)N)NC(=O)[C@H](CO)NC(=O)[C@H](CSSC[C@H](NC(=O)[C@H](CCCCN)NC(=O)[C@H](CCCNC(=N)N)NC(=O)[C@H](CC(C)C)NC1=O)C(=O)N[C@@H]([C@@H](C)CC)C(=O)N1CCC[C@H]1C(=O)N[C@@H](CC(=O)O)C(=O)N[C@@H](CC(N)=O)C(=O)N[C@@H](CC(=O)O)C(=O)N[C@@H](CCCCN)C(=O)N3)NC(=O)[C@H](C(C)C)NC(=O)[C@H](CC(C)C)NC(=O)[C@H](CC(N)=O)NC(=O)[C@@H]1CCCN1C(=O)[C@H](CCCNC(=N)N)NC2=O [[Nva5;Leu6;Glu28]GpTx-1(1-34)] (H-DCLG[Nva]LRKCIPDNDKCCRPNLVCSRTHEWCKYVF-NH2; disulfide 2-17, 9-23, 16-30) | 42 | > 10000
